Results published in US12441725B2, “ISO-citrate dehydrogenase (IDH) inhibitor” (ZHEJIANG METON PHARMACEUTICAL CO., LTD, priority 2019, dated 2025).

Legend:
[1] = biological target: T1, IDH (endogenous IDH1 R132C) in HT1080 cell (Homo sapiens, UniProt O75874, R132C); assay: Cell-based assay for IDH inhibition (decrease of D-2-HG) in HT1080 cells; conditions: human fibrosarcoma cell line HT1080, 16 hours treatment, D-2-HG by LC-MS, in triplet
T1 construct: which harbor endogenous heterozygous IDH1 R132C and R132H mutation respectively and accumulate D-2-HG
How it was run: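 HT1080 cells with endogenous IDH1 R132C, grown in DMEM/10% FBS, treated with compound at several concentrations for 16 h. Metabolites extracted in cold 40% methanol/40% acetonitrile and D-2-HG measured by HILIC LC-MS/MS, normalized to glutamate. IC50 from D-2-HG relative to DMSO controls; run in triplicate.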

IDH1 R132C = biological target: T2, IDH1 R132C (Homo sapiens, UniProt O75874, R132C); assay: Biochemical assay for IDH inhibition (NADPH fluorescence), mutant IDH1 R132C; conditions: 25 nM IDH1-R132C, 1 hour pre-incubation, in triplet
T2 construct: 6xHis
How it was run: (§1)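 Mutant enzyme (25 nM R132C or 50 nM R132H) was preincubated 1 h at room temperature with compound in pH 7.5 Tris buffer containing 1.33 mM α-KG, and the reaction was then started with NADPH (80 μM solution). NADPH consumption was followed by fluorescence (Ex 340/Em 460 nm) for 15 min. IC50 was derived from background-corrected linear rates relative to vehicle, run in triplicate.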

IDH1 R132H = biological target: T3, IDH1 R132H (Homo sapiens, UniProt O75874, R132H); assay: Biochemical assay for IDH inhibition (NADPH fluorescence), mutant IDH1 R132H; conditions: 50 nM IDH1-R132H, 1 hour pre-incubation, in triplet
T3 construct: 6xHis
How it was run: as §1

T3 sequence (O75874 whole entry R132H): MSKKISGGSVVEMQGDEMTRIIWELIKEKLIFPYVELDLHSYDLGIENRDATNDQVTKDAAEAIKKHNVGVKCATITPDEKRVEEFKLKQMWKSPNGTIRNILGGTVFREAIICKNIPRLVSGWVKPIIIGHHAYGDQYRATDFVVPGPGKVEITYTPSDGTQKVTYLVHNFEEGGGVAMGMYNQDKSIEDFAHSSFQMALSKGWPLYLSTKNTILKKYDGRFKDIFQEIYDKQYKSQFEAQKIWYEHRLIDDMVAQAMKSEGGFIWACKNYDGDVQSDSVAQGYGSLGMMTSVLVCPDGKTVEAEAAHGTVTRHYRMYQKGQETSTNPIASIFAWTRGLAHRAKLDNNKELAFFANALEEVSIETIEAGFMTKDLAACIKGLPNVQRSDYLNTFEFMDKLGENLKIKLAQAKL
T1 sequence (O75874 2-414 R132C): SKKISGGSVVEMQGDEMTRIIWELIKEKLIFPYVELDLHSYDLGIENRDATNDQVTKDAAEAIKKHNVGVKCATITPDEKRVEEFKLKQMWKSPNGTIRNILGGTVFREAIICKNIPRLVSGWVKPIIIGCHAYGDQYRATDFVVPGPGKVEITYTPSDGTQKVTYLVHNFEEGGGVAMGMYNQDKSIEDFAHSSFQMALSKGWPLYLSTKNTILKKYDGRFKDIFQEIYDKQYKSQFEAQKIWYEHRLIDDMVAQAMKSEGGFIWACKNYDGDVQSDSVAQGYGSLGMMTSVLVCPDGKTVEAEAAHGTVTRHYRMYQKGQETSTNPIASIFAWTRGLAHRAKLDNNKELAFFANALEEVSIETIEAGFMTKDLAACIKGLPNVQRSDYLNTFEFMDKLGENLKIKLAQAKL
T2 sequence (O75874 whole entry R132C): as the sequence (O75874 whole entry R132H) above, with H132C counted along it

Structure (SMILES) | IC50 [1] [nM] | IC50 (IDH1 R132C) [nM] | IC50 (IDH1 R132H) [nM]
C[C@H](Nc1nccc2c1CN(CC(F)F)C2=O)c1ccc(-c2ccnc(C(C)(C)C)c2)c(F)c1 [Compound 37, (S)-4-((1-(4-(2-(tert-butyl)pyridin-4-yl)-3-fluorophenyl)ethyl)amino)-2-(2,2-difluoroethyl)-2,3-dihydro-1H-pyrrolo[3,4-c]pyridin-1-one] | 500 to 1000 | 100 to 500 | 100 to 500
C[C@H](Nc1nccc2c1CN(C(CF)CF)C2=O)c1ccc(-c2ccnc(C(C)(C)C)c2)c(F)c1 [Compound 38, (S)-4-((1-(4-(2-(tert-butyl)pyridin-4-yl)-3-fluorophenyl)ethyl)amino)-2-(1,3-difluoropropan-2-yl)-2,3-dihydro-1H-pyrrolo[3,4-c]pyridin-1-one] | 500 to 1000 | 100 to 500 | < 100
C[C@H](Nc1nccc2c1CN(CC(F)CF)C2=O)c1ccc(-c2ccnc(C(C)(C)C)c2)c(F)c1 (stereo partly drawn) [Compound 39, 4-(((S)-1-(4-(2-(tert-butyl)pyridin-4-yl)-3-fluorophenyl)ethyl)amino)-2-(2,3-difluoropropyl)-2,3-dihydro-1H-pyrrolo[3,4-c]pyridin-1-one] | > 1000 | > 1000 | 100 to 500
C[C@H](Nc1nccc2c1CN([C@H](C)CF)C2=O)c1ccc(-c2ccnc(C(C)(C)C)c2)c(F)c1 [Compound 40, 4-(((S)-1-(4-(2-(tert-butyl)pyridin-4-yl)-3-fluorophenyl)ethyl)amino)-2-((R)-1-fluoropropan-2-yl)-2,3-dihydro-1H-pyrrolo[3,4-c]pyridin-1-one] | 100 to 500 | 100 to 500 | < 100
CCN1Cc2c(N[C@@H](C)c3ccc(-c4ccc(F)c(C)c4)c(F)c3)ncc(F)c2C1=O [Compound 41, (S)-4-((1-(2,4′-difluoro-3′-methyl-[1,1′-biphenyl]-4-yl)ethyl)amino)-2-ethyl-7-fluoro-2,3-dihydro-1H-pyrrolo[3,4-c]pyridin-1-one] | > 1000 | 500 to 1000 | 100 to 500
CCN1Cc2c(ccnc2N[C@@H](C)c2ccc(-c3ccnc(C(C)(C)C)c3)c(F)c2F)C1=O [Compound 42, (S)-4-((1-(4-(2-(tert-butyl)pyridin-4-yl)-2,3-difluorophenyl)ethyl)amino)-2-ethyl-2,3-dihydro-1H-pyrrolo[3,4-c]pyridin-1-one] | 100 to 500 | 100 to 500 | < 100
CCN1Cc2c(ccnc2N[C@@H](C)c2cc(F)c(-c3ccnc(C(C)(C)C)c3)c(F)c2)C1=O [Compound 43, (S)-4-((1-(4-(2-(tert-butyl)pyridin-4-yl)-3,5-difluorophenyl)ethyl)amino)-2-ethyl-2,3-dihydro-1H-pyrrolo[3,4-c]pyridin-1-one] | 100 to 500 | < 100 | < 100
CCN1Cc2c(ccnc2N[C@@H](C)c2cnc(-c3cc(C(C)(C)C)ccn3)c(F)c2)C1=O [Compound 44, (S)-4-((1-(4′-(tert-butyl)-3-fluoro-[2,2′-bipyridin]-5-yl)ethyl)amino)-2-ethyl-2,3-dihydro-1H-pyrrolo[3,4-c]pyridin-1-one] | 500 to 1000 | > 1000 | > 1000
CCN1Cc2c(ccnc2N[C@@H](C)c2cc(C)c(-c3ccnc(C(F)(F)F)c3)cn2)C1=O [Compound 45, (S)-2-ethyl-4-((1-(4-methyl-2′-(trifluoromethyl)-[3,4′-bipyridin]-6-yl)ethyl)amino)-2,3-dihydro-1H-pyrrolo[3,4-c]pyridin-1-one] | > 1000 | > 1000 | > 1000
CCN1Cc2c(ccnc2N[C@@H](C)c2ccc(-c3ccnc(C(C)(C)C)c3)cn2)C1=O [Compound 46, (S)-4-((1-(2′-(tert-butyl)-[3,4′-bipyridin]-6-yl)ethyl)amino)-2-ethyl-2,3-dihydro-1H-pyrrolo[3,4-c]pyridin-1-one] | > 1000 | > 1000 | > 1000
CCN1Cc2c(ccnc2N[C@@H](C)c2ncc(-c3ccccc3)cn2)C1=O [Compound 47, (S)-2-ethyl-4-((1-(5-phenylpyrimidin-2-yl)ethyl)amino)-2,3-dihydro-1H-pyrrolo[3,4-c]pyridin-1-one] | > 1000 | > 1000 | > 1000

More lines, now with the values ahead:

IC50 [1] [nM] | IC50 (IDH1 R132C) [nM] | IC50 (IDH1 R132H) [nM] | Structure (SMILES)
> 1000 | > 1000 | > 1000 | CCN1Cc2c(ccnc2N[C@@H](C)c2ncc(-c3ccc(F)c(C)c3)cn2)C1=O [Compound 48, (S)-2-ethyl-4-((1-(5-(4-fluoro-3-methylphenyl)pyrimidin-2-yl)ethyl)amino)-2,3-dihydro-1H-pyrrolo[3,4-c]pyridin-1-one]
> 1000 | > 1000 | > 1000 | CCN1Cc2c(ccnc2N[C@@H](C)c2ncc(-c3cccc(C)c3F)cn2)C1=O [Compound 49, (S)-2-ethyl-4-((1-(5-(2-fluoro-3-methylphenyl)pyrimidin-2-yl)ethyl)amino)-2,3-dihydro-1H-pyrrolo[3,4-c]pyridin-1-one]
> 1000 | > 1000 | > 1000 | CCN1Cc2c(ccnc2N[C@@H](C)c2ncc(-c3ccc(OC)cc3)cn2)C1=O [Compound 50, (S)-2-ethyl-4-((1-(5-(4-methoxyphenyl)pyrimidin-2-yl)ethyl)amino)-2,3-dihydro-1H-pyrrolo[3,4-c]pyridin-1-one]
> 1000 | 100 to 500 | 100 to 500 | CCN1Cc2c(ccnc2N[C@@H](C)c2ccc(Cc3ccc(F)c(C)c3)c(F)c2)C1=O [Compound 51, (S)-2-ethyl-4-((1-(3-fluoro-4-(4-fluoro-3-methylbenzyl)phenyl)ethyl)amino)-2,3-dihydro-1H-pyrrolo[3,4-c]pyridin-1-one]
> 1000 | 100 to 500 | 100 to 500 | CCN1Cc2c(ccnc2N[C@@H](C)c2ccc(Cc3ccccc3)c(F)c2)C1=O [Compound 52, (S)-4-((1-(4-benzyl-3-fluorophenyl)ethyl)amino)-2-ethyl-2,3-dihydro-1H-pyrrolo[3,4-c]pyridin-1-one]
> 1000 | > 1000 | > 1000 | CCN1Cc2c(ccnc2N[C@@H](C)c2ncc(Cc3ccc(F)c(C)c3)cn2)C1=O [Compound 54, (S)-2-ethyl-4-((1-(5-(4-fluoro-3-methylbenzyl)pyrimidin-2-yl)ethyl)amino)-2,3-dihydro-1H-pyrrolo[3,4-c]pyridin-1-one]
> 1000 | > 1000 | > 1000 | CCN1Cc2c(ccnc2N[C@@H](C)c2ccc(CN3CCC(F)(F)CC3)c(F)c2)C1=O [Compound 55, (S)-4-((1-(4-((4,4-difluoropiperidin-1-yl)methyl)-3-fluorophenyl)ethyl)amino)-2-ethyl-2,3-dihydro-1H-pyrrolo[3,4-c]pyridin-1-one]
> 1000 | > 1000 | > 1000 | CCN1Cc2c(ccnc2N[C@@H](C)c2cn(-c3ccnc(C(C)(C)C)c3)cn2)C1=O [Compound 56, (S)-4-((1-(1-(2-(tert-butyl)pyridin-4-yl)-1H-imidazol-4-yl)ethyl)amino)-2-ethyl-2,3-dihydro-1H-pyrrolo[3,4-c]pyridin-1-one]
> 1000 | > 1000 | > 1000 | CCN1Cc2c(N[C@@H](C)c3cn(-c4ccc(F)cc4)cn3)ncc(F)c2C1=O [Compound 57, (S)-2-ethyl-7-fluoro-4-((1-(1-(4-fluorophenyl)-1H-imidazol-4-yl)ethyl)amino)-2,3-dihydro-1H-pyrrolo[3,4-c]pyridin-1-one]
